In US4640916A, “1,4-benzothiazine derivatives, compositions containing them and method of use” (priority 1984, dated 1987):
Structures can show the parent of a compound that is named as a salt.

Assays:
intracellular Ca^++ = conditions: (2) Ca++ from intracellular store site; (3) Ca++ through receptor-dependent channel; cited from earlier work
[1] = tested on: ischemia-reperfusion-induced ventricular arrythmia in rats; experiment: Effect on the ischemia-reperfusion-induced ventricular arrhythmia in rats; format: in vivo, Sprague-Dawley rats; conditions: p.o.; for Incidence of cardiac arrest (CA), rats affected/rats used / Incidence of ventricular fibrillation (VF), rats affected/rats used / Incidence of ventricular tachycardia (VT), rats affected/rats used: 10 min after reperfusion; for Effect on incidences of VT, VF and CA (in words): Ex. 48 at 1, 3 and 10 mg/kg, Ex. 46 at 0.3, 1, 3 and 10 mg/kg
Protocol: Male Sprague-Dawley rats, 9 to 10 week old, were orally given the compounds or tap water at a volume of 5 ml/kg. After 1 hour, rats were anesthetized with sodium pentobarbital (50 mg/kg, i.p.), and left anterior descending coronary artery was occluded for 5 min. with a silk thread under ventilation. The incidences of ventricular tachycardia (VT), ventricular fibrilation (VF) and cardiac arrest (CA) occurred for 10 min. after reperfusion of the blood were calculated.

[2] = tested on: ischemic seizure induced by bilateral carotid artery occlusion; experiment: Effect on the ischemic seizure induced by bilateral carotid artery occlusion in spontaneously hypertensive rats; format: in vivo; conditions: p.o.; for Time toward ischemic seizure: 1 h before occlusion; for Effect on time of the beginning of the ischemic seizure (in words): Ex. 48 at 1, 3 and 10 mg/kg, Ex. 46 at 0.3, 1 and 3 mg/kg
Protocol: Male spontaneously hypertensive rats, 20 to 22 week old, were orally given the compounds or tap water at a volume of 5 ml/kg. After 1 hour, the carotid artery was bilaterally occluded by use of silk thread under anesthesia with sodium pentobarbital (50 mg/kg, i.p.). The length of time until the ischemic seizure such as convulsion and jumping was observed was measured, immediately after the occlusion of carotid artery.

[3] = tested on: ischemic acute renal failure in rats; experiment: Effect on the ischemic acute renal failure in rats; format: in vivo, Sprague-Dawley rats; conditions: for Plasma urea nitrogen (BUN): p.o., 24 h after reperfusion; for Effect on the increase in BUN (in words): Ex. 48 at 10 mg/kg, Ex. 46 at 1 and 3 mg/kg
Protocol: The left renal artery of male Sprague-Dawley rats, 6 week old, was clamped for 1 hour under anesthesia with sodium pentobarbital (50 mg/kg, i.p.). The compounds or water was orally given 1 hour before the occlusion. The compounds were again given 20 hour after the reperfusion of the blood. Twenty four hour after the reperfusion, the blood was obtained from the abdominal aorta under anesthesia for measurement of plasma urea nitrogen (BUN).

[4] = tested on: spontaneously hypertensive rats; experiment: Antihypertensive action in spontaneously hypertensive rats (tail-cuff); format: in vivo; conditions: 1 h after administration
Protocol: Male 12 to 13 weeks old spontaneously hypertensive rats with about 200 mm Hg of blood pressure were used in groups of 3 individuals. Mean arterial blood pressures of these animals were measured by the tail-cuff method, then the animals were orally given 3-60 mg/kg of each test compound of this invention as 2 ml of its suspension in gum arabic. Blood pressure measurements were made again one hour after administration of each test compound.

[5] = in vivo; cited from earlier work
[6] = tested on: contraction of the aorta strip caused by KCl; experiment: Vasodilating action: inhibition of contraction of rabbit aorta strip caused by KCl; format: cell-based; conditions: Oryctolagus cuniculus, compound 10^-5 M, KCl 60 mM, 15 min pretreatment, read-out: Inhibitory percent against contraction, KCl
Protocol: (§1) A spiral strip of aorta of a rabbit (2-3 mm width, about 3 cm length) was allowed to equilibrate by hanging under 2 g force in a Krebs-Henseleit solution. The solution was saturated with a mixture gas of 97% O2 --3% CO2 which was warmed to 37° C. Inhibitory actions of compounds (10^-5 M) of this invention against contraction of the aorta strip caused by KCl (60 mM), norepinephrine (NE) (10^-6 M) or serotonin (5--HT) (10^-6 M), by treating the strip with a compound of this invention 15 minutes before the test, are shown in Table 1 as inhibitory percent.

[7] = tested on: contraction of the aorta strip caused by norepinephrine (NE); experiment: Vasodilating action: inhibition of contraction of rabbit aorta strip caused by norepinephrine (NE); format: cell-based; conditions: Oryctolagus cuniculus, compound 10^-5 M, NE 10^-6 M, 15 min pretreatment, read-out: Inhibitory percent against contraction, NE
Protocol: as §1

[8] = tested on: contraction of the aorta strip caused by serotonin (5--HT); experiment: Vasodilating action: inhibition of contraction of rabbit aorta strip caused by serotonin (5-HT); format: cell-based; conditions: Oryctolagus cuniculus, compound 10^-5 M, 5-HT 10^-6 M, 15 min pretreatment, read-out: Inhibitory percent against contraction, 5-HT
Protocol: as §1

[9] = tested on: contraction depending on intracellular Ca^++; experiment: Intracellular Ca++ antagonism: inhibition of phenylephrine contraction of aorta strip in Ca++-free EGTA solution; format: cell-based, rabbit; conditions: Oryctolagus cuniculus, phenylephrine 10^-6 M, Ca++ 0 mM, EGTA 5 mM, read-out: Inhibitory percent (contraction depending on intracellular Ca++)
Protocol: A spiral strip of aorta of a rabbit (2-3 mm width, about 3 cm length) was allowed to equilibrate by hanging under 2 g force in a Krebs-Henseleit solution. The solution was saturated with a mixture gas 97% O2 --3% CO2, which was warmed to 37° C. The strip was moved into another Krebs-Henseleit solution containing Ca^++ OmM and EGTA 5 mM. Five minutes later, phenylephrine (10^-6 M) was added on the solution. The resulting contraction of the strip was made as the index of the contraction depending on intracellular Ca^++.

[10] = cited from earlier work
[11] = 1 mg/kg, control 139 ± 9 (Ex. 48), 150 ± 6 (Ex. 46)
[12] = 3 mg/kg, control 152 ± 14 (Ex. 48), 150 ± 6 (Ex. 46)
[13] = 3 mg/kg, control 20.3 ± 0.6 (Ex. 48), 25.1 ± 0.8 (Ex. 46)

COC(=O)C1=C(C)NC(C)=C(C(=O)OC)C1c1ccccc1[N+](=O)[O-] [nifedipine]
Action on intracellular Ca++ (in words) (intracellular Ca^++): hardly acts on (2) and (3)

Cc1cccc2c1NC(=O)C(CCCN1CCN(c3ccc(F)cc3)CC1)S2 (stereo not shown) [Example 48, 2-[3-[4-(4-fluorophenyl)-1-piperazinyl]propyl]-5-methyl-2H-1,4-benzothiazin-3(4H)-one]
Incidence of cardiac arrest (CA), rats affected/rats used ([1]; 1 mg/kg): 3/10
Incidence of ventricular fibrillation (VF), rats affected/rats used ([1]; 1 mg/kg): 5/10
Incidence of ventricular tachycardia (VT), rats affected/rats used ([1]; 1 mg/kg): 7/10
Incidence of cardiac arrest (CA), rats affected/rats used ([1]; 3 mg/kg): 1/9
Incidence of ventricular fibrillation (VF), rats affected/rats used ([1]; 3 mg/kg): 3/9
Incidence of ventricular tachycardia (VT), rats affected/rats used ([1]; 3 mg/kg): 4/9
Incidence of cardiac arrest (CA), rats affected/rats used ([1]; 10 mg/kg): 0/6
Incidence of ventricular fibrillation (VF), rats affected/rats used ([1]; 10 mg/kg): 1/6
Incidence of ventricular tachycardia (VT), rats affected/rats used ([1]; 10 mg/kg): 1/6
Effect on incidences of VT, VF and CA (in words) [1]: inhibited the incidences of VT, VF and CA in a dose-dependent manner
Time toward ischemic seizure [2, 11]: 167 ± 8 min
Time toward ischemic seizure [2, 12]: 214 ± 22 min
Time toward ischemic seizure ([2]; 10 mg/kg, control 132 ± 14): 275 ± 22 min
Effect on time of the beginning of the ischemic seizure (in words) [2]: prolonged the time of the beginning of the ischematic seizure in a dose-dependent manner
Plasma urea nitrogen (BUN) [3, 13]: 18.9 ± 0.6 mg/dL
Plasma urea nitrogen (BUN) ([3]; 10 mg/kg, control 22.8 ± 1.0): 16.9 ± 0.7 mg/dL
Effect on the increase in BUN (in words) [3]: inhibited the increase in BUN

NCCCCCCNS(=O)(=O)c1cccc2c(Cl)cccc12 [Example W-7]
Action on intracellular Ca++ (in words) (intracellular Ca^++): weak in their action

O=C1Nc2cc3c(cc2SC1CCCN1CCN(c2ccc(F)cc2)CC1)CCC3 (stereo not shown) [Example 46, 6,7-cyclopenteno-2-[3-[4-(4-fluorophenyl)-1-piperazinyl]propyl]-2H-1,4-benzothiazin-3(4H)-one.hydrochloride]
Antihypertensive effect (difference of blood pressure before and after medication) ([4]; 3 mg/Kg oral): 33 ΔmmHg
Incidence of cardiac arrest (CA), rats affected/rats used ([1]; 0.3 mg/kg): 9/19
Incidence of ventricular fibrillation (VF), rats affected/rats used ([1]; 0.3 mg/kg): 9/19
Incidence of ventricular tachycardia (VT), rats affected/rats used ([1]; 0.3 mg/kg): 12/19
Incidence of cardiac arrest (CA), rats affected/rats used ([1]; 1 mg/kg): 0/12
Incidence of ventricular fibrillation (VF), rats affected/rats used ([1]; 1 mg/kg): 5/12
Incidence of ventricular tachycardia (VT), rats affected/rats used ([1]; 1 mg/kg): 7/12
Incidence of cardiac arrest (CA), rats affected/rats used ([1]; 3 mg/kg): 0/12
Incidence of ventricular fibrillation (VF), rats affected/rats used ([1]; 3 mg/kg): 2/12
Incidence of ventricular tachycardia (VT), rats affected/rats used ([1]; 3 mg/kg): 5/12
Incidence of cardiac arrest (CA), rats affected/rats used ([1]; 10 mg/kg): 0/4
Incidence of ventricular fibrillation (VF), rats affected/rats used ([1]; 10 mg/kg): 1/4
Incidence of ventricular tachycardia (VT), rats affected/rats used ([1]; 10 mg/kg): 1/4
Effect on incidences of VT, VF and CA (in words) [1]: inhibited the incidences of VT, VF and CA in a dose-dependent manner
Time toward ischemic seizure ([2]; 0.1 mg/kg, control 153 ± 8): 167 ± 13 min
Time toward ischemic seizure ([2]; 0.3 mg/kg, control 143 ± 7): 190 ± 11 min
Time toward ischemic seizure [2, 11]: 217 ± 11 min
Time toward ischemic seizure [2, 12]: 279 ± 18 min
Effect on time of the beginning of the ischemic seizure (in words) [2]: prolonged the time of the beginning of the ischematic seizure in a dose-dependent manner
Plasma urea nitrogen (BUN) ([3]; 1 mg/kg, control 20.4 ± 0.4): 18.0 ± 0.7 mg/dL
Plasma urea nitrogen (BUN) [3, 13]: 19.6 ± 0.8 mg/dL
Effect on the increase in BUN (in words) [3]: inhibited the increase in BUN

COc1cc2nc(N3CCN(C(=O)c4ccco4)CC3)nc(N)c2cc1OC [prazosin]
Side effects of known drugs (in words) [5]: orthostatic hypotension often observed

Cc1cc(C)c2c(c1)SC(CCCN1CCN(c3ccc(F)cc3)CC1)C(=O)N2 (stereo not shown) [Example 11]
inhibition at 10 µM [6]: 70%
inhibition at 10 µM [7]: 95%
inhibition at 10 µM [8]: 67%
inhibition at 1 µM ([9]; compound 10^-6 M): 97%
Antihypertensive effect (difference of blood pressure before and after medication) ([4]; 30 mg/Kg oral): 49 ΔmmHg

CCN(CC)CCCCCCCCOC(=O)c1cc(OC)c(OC)c(OC)c1 [TMB-8]
inhibition at 100 µM ([9]; compound 10^-4 M): 58%
Action on intracellular Ca++ (in words) (intracellular Ca^++): weak in their action
Antihypertensive action in vivo (in words) [10]: do not display antihypertensive action in vivo

CN1CCN(CCCN2c3ccccc3Sc3ccc(C(F)(F)F)cc32)CC1 [trifluoperazine]
Action on intracellular Ca++ (in words) (intracellular Ca^++): showing antagonism against intracellular Ca^++
Side effects of known drugs (in words) [5]: side effects e.g. on the central nervous system
